Where two headings read alike, the source gives them in different places.
Legend:
TF (tissue factor) = experiment: Inhibitory effects on the TF production in LPS-stimulated human peripheral blood monocytes; type: cell-based; details: Monocyte, LPS 1 μg/ml, 16 hours
Protocol: Peripheral venous blood was sampled from the healthy person, and submitted to density-gradient centrifugation so that monocytes might be isolated. The monocytes thus obtained were washed with minimum essential medium (MEM, Gibco) and suspended in a culture medium (RPMI-1640(Gibco)+25 mM HEPES buffer+100 μg/ml streptomycin+100 U/ml penicillin G+2 mM L-glutamine) to give a suspension with a density of 1×10^6 cells/ml. A 0.15 ml of the cell suspension was placed onto each of the wells of a 96-well microplate, to which the compound of this invention as described in Tables 4-1 to 4-2 was added (0.05 ml of the culture medium), and the assembly was placed for 1 hour in a CO2 incubator for cultivation. Then, LPS (lipopolysaccarides, E. coli 0111B4, Difco) 1 μg/ml was added thereto, and the assembly was further cultured for 16 hours. After the supernatant being removed, the residue was washed with physiological saline, 0.1 ml of 16 mM OG (n-octyl-β-D-glucopyranoside) was added thereto, and the assembly was stirred to make TF soluble. A 0.2 ml of physiological saline was added to each residue (final dilution was […]) and this preparation was used for determination of the coagulation stimulating activity (TF-like activity). The test compound had been dissolved in DMSO to give a 0.1 M solution which was diluted with the culture medium prior to use. The final concentration of DMSO was 0.01% or less.
To each well of the microplate, 50 μl of human plasma and 50 μl of the test sample prepared as above for determination of the coagulation stimulating activity, or 50 μl of standard thromboplastin (human thromboplastin, Thromborel S, Behringwerke) were added. The microplate was incubated at 37° C. for 5 minutes, to which was added 25 mM CaCl2 (50 μl/well) containing phosphorous lipids (Platelin, Organon Teknica) at a concentration of […] to initiate coagulation. Coagulation was determined on the basis of absorption at 540 nm, and the measurement lasted 7 to 20 minutes. The data were analyzed with a data analyzing software SOFTMax (Molecular Devices) and the maximum rate time was taken as the coagulation time. The logarithmic values of the coagulation times and standard thromboplastin concentrations are plotted, and a regression parabola was drawn among the dots to give a test curve. From the curve, the inhibitory effect (%) of a given test compound on TF production was calculated. (Refer to J. Imnmunol. Methods, 133:21-29, 1990, and Proc. Natl. Acad. Sci. USA, 89:10370-10374, 1992).

mast cells of the rat = experiment: Inhibition of histamine release from rat mast cells; type: cell-based, rat (SD strain); details: Mast cell, read-out: Inhibiton of histamine release (%)
Protocol: A 1 ml of anti-DNP-Ascaris (Didets) anti-serum (prepared as described in J. Immunol., 106:1002, 1971) was injected into the peritoneal cavity of 5 SD strain rats of 7 weeks old. Forty eight hours later, the animals were bled to death, and 20 ml of HBSS (Hanks balanced salt solution) was injected into their peritoneal cavity. After about 90 second massaging, the HBSS washing was recovered, and cells released into the peritoneal cavity were collected from the washing. The ascitic cells thus collected were washed once with 0.1% BSA/Tyrode-HEPES, and then resuspended in 0.1% BSA/Tyrode-HEPES to give a suspension with a density of 5×10^6 cells/ml. The cell suspension was incubated at 37° C. for 10 minutes in the presence/absence of a test substance, that is, the compound listed in Table 6.
To the resulting mixture was added a histamine releasing agent (20 μg/ml of DNP-Ascaris (DNP-As) (Didets)+25 μg/ml of phosphatidylserine (PS) or 0.2 μg/ml of calcium ionophore A23187), and the reaction was allowed to proceed at 37° C. for 20 minutes. Then, the cell suspension was centrifuged to obtain supernatant. Histamine released in the supernatant was determined by the fluorescent method (J. Pharmacol. Exp. Ther. 127:182, 1959). Inhibitory effect (%) of a given compound of this invention on histamine release was calculated relative to the histamine release when the compound was not coexistent.

[1] = releasing agent DNP-As + PS, 10 μM
[2] = releasing agent DNP-As + PS, 100 μM
[3] = releasing agent calcium ionophore A23187, 10 μM
[4] = releasing agent calcium ionophore A23187, 100 μM

| Structure (SMILES) | inhibition at 1 µM (TF (tissue factor); 1 μM) [%] | inhibition at 3 µM (TF (tissue factor)) [%] | inhibition at 10 µM (TF (tissue factor); 10 μM) [%] | inhibition at 10 µM (mast cells of the rat; [1]) [%] | inhibition at 100 µM (mast cells of the rat; [2]) [%] | inhibition at 10 µM (mast cells of the rat; [3]) [%] | inhibition at 100 µM (mast cells of the rat; [4]) [%] |
| --- | --- | --- | --- | --- | --- | --- | --- |
| O=C(Nc1ccccc1C(=O)O)c1ccc(Oc2ccc3ccccc3c2)cc1 [Compound No. 1104, 2-(4-(2-naphtyloxy)benzamide)benzoic Acid] | 45.3 | 90.4 | 100 | 42.7 | 84.2 | 75.4 | 78 |
| O=C(Cc1ccc(Oc2ccc3ccccc3c2)cc1)Nc1ccccc1C(=O)O [Compound No. 1126, 2-(4-(2-naphtyloxy)phenylacetamide)benzoic acid] |  | 26.5 |  | 25.4 | 90.2 | 54.2 | 79.8 |
